From publication PMC10272563, “Novel gold(III)-dithiocarbamate complex targeting bacterial thioredoxin reductase: antimicrobial activity, synergy, toxicity, and mechanistic insights” (Frontiers in Microbiology, 2023)
Like-named read-outs stand apart in the source and are kept apart here.

How the values were obtained:
[1] = biological target: T1, E. coli TrxR (thioredoxin reductase) (Escherichia coli, UniProt P0A9P4); parameters: gene trxB
[2] = biological target: T1, E. coli TrxR (thioredoxin reductase); assay: Trx-coupled DTNB reduction assay, purified recombinant enzyme; activity recovered after desalting; format: biochemical; parameters: gene trxB; GenBank PSY25180.1, residues 1–321, His6-SUMO tag removed

T1 sequence (P0A9P4 whole entry, the tested form may be a part): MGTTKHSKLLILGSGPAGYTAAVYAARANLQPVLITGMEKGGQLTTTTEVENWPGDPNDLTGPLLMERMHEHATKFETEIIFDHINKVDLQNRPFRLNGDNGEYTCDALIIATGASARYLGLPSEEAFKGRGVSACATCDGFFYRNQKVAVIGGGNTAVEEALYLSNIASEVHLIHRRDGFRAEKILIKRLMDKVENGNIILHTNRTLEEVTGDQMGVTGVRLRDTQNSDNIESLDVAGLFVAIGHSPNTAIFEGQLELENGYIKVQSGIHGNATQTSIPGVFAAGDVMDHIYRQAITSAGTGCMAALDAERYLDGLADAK
T1 sequence (P0AA25 whole entry, further chain, the tested form may be a part): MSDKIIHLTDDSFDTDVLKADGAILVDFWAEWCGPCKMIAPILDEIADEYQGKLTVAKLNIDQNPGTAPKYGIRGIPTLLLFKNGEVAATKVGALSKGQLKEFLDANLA

| Molecule | IC50 [1] | IC50 [2] |
| --- | --- | --- |
| CC[P](CC)(CC)=[Au][S][C@@H]1O[C@H](COC(C)=O)[C@@H](OC(C)=O)[C@H](OC(C)=O)[C@H]1OC(C)=O [auranofin] | 1.11 µM |  |
| [Au(dppta)(mrdtc)][PF6] [compound 2] |  | 1.92 µM |
| [Au(dppta)Cl2] [compound 1] |  | 1.33 µM |
